Experimental data as given in ChEMBL document CHEMBL4351021, “Design, synthesis and biological evaluation of novel FFA1/GPR40 agonists: New breakthrough in an old scaffold” (Eur J Med Chem, 2019).
Calls of active or inactive are those of the source. The rule behind the calls is not given here.

Tests used:
[1] = Lipophilicity, logD of compound in 1-octanol and PBS mixture in pH 7.4 at 100 uM incubated for 24 under shaking condition by HPLC analysis; type: physicochemical; details: 1-octanol/PBS
[2] = target: T1, Free fatty acid receptor 1 (Homo sapiens, UniProt O14842); test: Agonist activity at FFA1 receptor (unknown origin) stably expressed in CHO cells assessed as increase in calcium flux by Fluo4-AM based FLIPR assay; type: functional, cell-based
Mus musculus [3] = test: Antidiabetic activity in ICR mouse assessed as glucose-stimulated change in GLP-1 secretion at 20 mg/kg, po pretreated for 0.5 hrs followed by glucose challenge and measured after 5 mins by ELISA; type: functional, organism-based
Mus musculus [4] = test: Antidiabetic activity in ICR mouse assessed as increase in GLP-1 secretion at 20 mg/kg, po pretreated with DPP4 inhibitor linagliptin for 1 hr followed by compound addition and measured after 4 hrs by ELISA; type: functional, organism-based
[5] = Half life in Sprague-Dawley rat at 10 mg/kg, po measured for […] by LC-MS/MS analysis; type: ADME, organism-based; details: in vivo
Mus musculus [6] = test: Antidiabetic activity in ICR mouse assessed as reduction in blood glucose level at 20 mg/kg, po pretreated for 30 mins followed by glucose challenge and measured up to 120 mins by OGTT; type: functional, organism-based
Mus musculus [7] = test: Antidiabetic activity in HFD fed/STZ-treated C57BL/6 mouse assessed as decrease in blood glucose at 20 mg/kg, po pretreated for 30 mins followed by glucose challenge and measured after up to 120 mins by OGTT; type: functional, organism-based
Hepatocyte [8] = test: Hepatotoxicity in sandwich-cultured Sprague-Dawley rat hepatocytes assessed as decrease in accumulation of d8-TCA at 25 uM incubated for 15 mins followed by d8-TCA addition and measured after 15 mins by LC-MS/MS analysis; type: toxicity, cell-based; details: 0.25 h
[9] = Cmax in Sprague-Dawley rat at 10 mg/kg, po measured for […] by LC-MS/MS analysis; type: ADME, organism-based; design: dose 10 mg/kg, route oral; details: in vivo
[10] = AUC (0 to 24 hrs) in Sprague-Dawley rat at 10 mg/kg, po measured for […] by LC-MS/MS analysis; type: ADME, organism-based; design: time < 24 hr, dose 10 mg/kg, route oral; details: in vivo; for AUC: 24 h
[11] = Clearance in Sprague-Dawley rat at 10 mg/kg, po measured for […] by LC-MS/MS analysis; type: ADME, organism-based; details: in vivo
Hepatocyte [12] = test: Hepatotoxicity in sandwich-cultured Sprague-Dawley rat hepatocytes assessed as inhibition of hepatobiliary transport by measuring biliary excretion index at 25 uM incubated for 15 mins followed by d8-TCA addition and measured after 15 mins by LC-MS/MS analysis; type: toxicity, cell-based; details: 0.25 h
Mus musculus [13] = test: Antidiabetic activity in ICR mouse assessed as flattening of glucose curve after 1 hr at 20 mg/kg, po pretreated for 30 mins followed by glucose challenge and measured up to 120 mins by OGTT; type: functional, organism-based
Rattus norvegicus [14] = test: Antidiabetic activity in Sprague-Dawley rat assessed as change in blood glucose level in fasting state at 10 mg/kg, po pretreated for 1 hr followed by glucose challenge and measured up to 120 mins by OGTT; type: functional, organism-based
[15] = target: T1, Free fatty acid receptor 1; test: Potency index, ratio of EC50 for 2-(4-(([…]3-yl)methoxy)-2-fluorophenoxy)acetic acid to EC50 for test compound for Agonist activity at FFA1 receptor (unknown origin) stably expressed in CHO cells assessed as increase in calcium flux by Fluo4-AM based FLIPR assay; type: functional, cell-based
Rattus norvegicus [16] = test: Antidiabetic activity in Sprague-Dawley rat assessed as change in blood glucose level at 10 mg/kg, po pretreated for 1 hr followed by glucose challenge by OGTT; type: functional, organism-based; details: TDE = time-dependent effect
Rattus norvegicus [17] = test: Antidiabetic activity in Sprague-Dawley rat assessed as suppression in blood glucose excursion at 10 mg/kg, po pretreated for 1 hr followed by glucose challenge and measured up to 120 mins by OGTT; type: functional, organism-based
Rattus norvegicus [18] = test: Antidiabetic activity in Sprague-Dawley rat assessed as increase in plasma insulin level at 10 mg/kg, po administrated and measured up to 120 mins by ELISA; type: functional, organism-based
Rattus norvegicus [19] = test: Antidiabetic activity in Sprague-Dawley rat assessed as increase in plasma insulin level at 10 mg/kg, po pretreated for 1 hr followed by glucose challenge and measured at 0 mins by ELISA; type: functional, organism-based
[20] = Acute toxicity in ICR mouse assessed as change in ALT level up to 500 mg/kg, po daily for 7 days; type: organism-based; details: in vivo, 168 h
[21] = Acute toxicity in ICR mouse assessed as induction of side effects at 5 to 500 mg/kg, po daily for 7 days; type: organism-based; details: in vivo, 168 h
[22] = Acute toxicity in ICR mouse assessed as change in liver morphology at 5 to 500 mg/kg, po daily for 7 days by H and E staining based histopathological analysis; type: organism-based; details: in vivo, 168 h
[23] = Acute toxicity in ICR mouse assessed as change in AST level up to 500 mg/kg, po daily for 7 days; type: organism-based; details: in vivo, 168 h
Rattus norvegicus [24] = test: Antidiabetic activity in Sprague-Dawley rat assessed as change plasma in insulin level at 10 mg/kg, po pretreated for 1 hr followed by glucose challenge by ELISA; type: functional, organism-based; details: TDE = time-dependent effect

T1 sequence (O14842 whole entry): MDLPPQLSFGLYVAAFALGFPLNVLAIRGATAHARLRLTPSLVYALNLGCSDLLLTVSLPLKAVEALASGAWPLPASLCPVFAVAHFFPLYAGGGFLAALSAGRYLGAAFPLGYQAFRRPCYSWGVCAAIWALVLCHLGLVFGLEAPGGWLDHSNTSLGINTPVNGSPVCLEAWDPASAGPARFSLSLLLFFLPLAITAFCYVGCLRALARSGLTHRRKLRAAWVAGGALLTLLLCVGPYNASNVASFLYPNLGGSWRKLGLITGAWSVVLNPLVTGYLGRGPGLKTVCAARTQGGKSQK

SMILES: O=C(O)COc1ccc(NCc2ccc(Cl)c(-c3ccccc3)c2)cc1F
- logD at 100 µM [1]: 2.74
- EC50 [2]: 51.7 nM

SMILES: Cc1cc(OCCCS(C)(=O)=O)cc(C)c1-c1cccc(COc2ccc3c(c2)OC[C@H]3CC(=O)O)c1
- Activity (Mus musculus [3]): inactive
- Activity (Mus musculus [4]): inactive
- half-life [5]: 259 min
- Activity (Mus musculus [6]): Active
- Activity (Mus musculus [7]): Active
- Activity (Hepatocyte [8]): Toxic
- Cmax [9]: 87.4 µg/mL
- AUC [10]: 1064.23 µg·h/mL
- CL [11]: 25.06 mL/h/kg

SMILES: CC(C)c1ccccc1-c1cccc(CNc2ccc(OCC(=O)O)c(F)c2)c1
- logD at 100 µM [1]: 3.45
- EC50 [2]: 86.2 nM

SMILES: CCOc1cc(C)c(-c2cccc(COc3ccc(NCC(=O)O)c(F)c3)c2)c(C)c1
- EC50 [2]: > 1000 nM

SMILES: CCOc1ccc(-c2cccc(CNc3ccc(OCC(=O)O)c(F)c3)c2)c(C)c1
- Activity_index (Hepatocyte [12]): 19.3%
- logD at 100 µM [1]: 2.83
- EC50 [2]: 11.6 nM
- Activity (Mus musculus [6]): Active
- Activity (Hepatocyte [8]): Toxic

SMILES: COc1ccccc1-c1cccc(CNc2ccc(OCC(=O)O)c(F)c2)c1
- EC50 [2]: 536 nM

SMILES: CCOc1cc(C)c(-c2cccc(CNc3ccc(OCC(=O)O)cc3)c2)c(C)c1
- EC50 [2]: 197 nM

SMILES: O=C(O)COc1ccc(NCc2cccc(-c3ccccc3Cl)c2)cc1F
- logD at 100 µM [1]: 2.71
- EC50 [2]: 19.3 nM
- Activity (Mus musculus [6]): Active

SMILES: Cc1cc(O)ccc1-c1cccc(CNc2ccc(OCC(=O)O)c(F)c2)c1
- logD at 100 µM [1]: 1.85
- EC50 [2]: 69.6 nM

SMILES: Cc1ccccc1-c1cccc(CNc2ccc(OCC(=O)O)c(F)c2)c1
- Activity_index (Hepatocyte [12]): 12.3%
- half-life [5]: 325 min
- logD at 100 µM [1]: 2.41
- Activity (Mus musculus [13]): Active
- Activity (Mus musculus [6]): Active
- Activity (Hepatocyte [8]): Toxic
- Cmax [9]: 187 µg/mL
- AUC(0-t) at 24 h ([10]; Sprague-Dawley): 2870 µg·h/mL
- CL/F ([11]; Sprague-Dawley): 0.109 mL/min/kg

SMILES: COc1ccc(Cl)cc1C(=O)NCCc1ccc(S(=O)(=O)NC(=O)NC2CCCCC2)cc1
- Activity (Rattus norvegicus [14]): Active

SMILES: COCCOc1cc(C)c(-c2cccc(CNc3ccc(OCC(=O)O)c(F)c3)c2)c(C)c1
- logD at 100 µM [1]: 2.47
- EC50 [2]: 51.6 nM

SMILES: O=C(O)COc1ccc(NCc2cccc(-c3ccccc3F)c2)cc1F
- logD at 100 µM [1]: 2.36
- EC50 [2]: 36.5 nM

SMILES: Cc1cc(OCCO)ccc1-c1cccc(CNc2ccc(OCC(=O)O)c(F)c2)c1
- Activity_index (Hepatocyte [12]): 14.3%
- logD at 100 µM [1]: 1.65
- EC50 [2]: 36.1 nM
- Activity (Hepatocyte [8]): Toxic

SMILES: Cc1cc(OCCCS(C)(=O)=O)ccc1-c1cccc(CNc2ccc(OCC(=O)O)c(F)c2)c1
- logD at 100 µM [1]: 1.59
- EC50 [2]: 45.6 nM

SMILES: N#Cc1ccccc1-c1cccc(CNc2ccc(OCC(=O)O)c(F)c2)c1
- EC50 [2]: 729 nM

SMILES: CCOc1cc(C)c(-c2cccc(CNc3ccc(OCC(=O)O)c(F)c3)c2)c(C)c1
- logD at 100 µM [1]: 3.04
- EC50 [2]: 24.2 nM
- Activity (Mus musculus [6]): Active
- Ratio EC50 [15]: 3

SMILES: CCOc1cc(C)c(-c2cccc(COc3ccc(OCC(=O)O)c(F)c3)c2)c(C)c1
- logD at 100 µM [1]: 3.61
- EC50 [2]: 69.3 nM

SMILES: CCCOc1ccc(-c2cccc(CNc3ccc(OCC(=O)O)c(F)c3)c2)c(C)c1
- logD at 100 µM [1]: 3.37
- EC50 [2]: 41.3 nM

SMILES: Cc1noc(C)c1-c1cccc(CNc2ccc(OCC(=O)O)c(F)c2)c1
- EC50 [2]: 225 nM

SMILES: Cc1cc(OCCCS(C)(=O)=O)cc(C)c1-c1cccc(CNc2ccc(OCC(=O)O)c(F)c2)c1
- logD at 100 µM [1]: 1.73
- EC50 [2]: 59.8 nM

SMILES: COCCOc1ccc(-c2cccc(CNc3ccc(OCC(=O)O)c(F)c3)c2)c(C)c1
- logD at 100 µM [1]: 2.23
- EC50 [2]: 41.9 nM

SMILES: CCCOc1cc(C)c(-c2cccc(CNc3ccc(OCC(=O)O)c(F)c3)c2)c(C)c1
- logD at 100 µM [1]: 3.59
- EC50 [2]: 38.7 nM

SMILES: Cc1ccc(-c2cccc(CNc3ccc(OCC(=O)O)c(F)c3)c2)c(Cl)c1
- logD at 100 µM [1]: 3.24
- EC50 [2]: 22.5 nM

SMILES: CO/N=C(\COc1ccc(CNc2ccc(OCC(=O)O)c(F)c2)cc1)c1ccccc1
- EC50 [2]: 398 nM

SMILES: O=C(O)COc1ccc(NCc2cccc(-c3ccccc3)c2)cc1F
- logD at 100 µM [1]: 2.25
- EC50 [2]: 58.5 nM

SMILES: O=C(O)COc1ccc(NCc2cccc(-c3ccccc3C(F)(F)F)c2)cc1F
- Activity (Rattus norvegicus [16]): Tde
- Activity (Rattus norvegicus [17]): Active
- Activity (Rattus norvegicus [18]): inactive
- Activity (Rattus norvegicus [19]): Active
- Activity_index (Hepatocyte [12]): 29.6%
- Activity [20]: Non-Toxic
- Activity (Mus musculus [3]): inactive
- Activity (Mus musculus [4]): Active
- half-life [5]: 290 min
- logD at 100 µM [1]: 3.13
- Activity [21]: Non-Toxic
- Activity (Rattus norvegicus [14]): inactive
- EC50 [2]: 15.7 nM
- Activity (Mus musculus [6]): Active
- Activity (Mus musculus [7]): Active
- Activity (Hepatocyte [8]): Toxic
- Activity [22]: Non-Toxic
- Activity [23]: Non-Toxic
- Cmax [9]: 322 µg/mL
- Activity (Rattus norvegicus [24]): Tde
- AUC [10]: 3909.33 µg·h/mL
- CL [11]: 7.47 mL/h/kg
